From patent publication US11077116B2, “Isoxazole derivatives as inducers of fetal hemoglobin in erythroid precursor cells from beta-thalassemic patients” (RARE PARTNERS SRL, priority 2017, dated 2021) come the findings set out here.

The assay concerns ErPCs (erythroid precursor cells) of β-thalassemic patients. The assay can be described thus: HPLC analysis of hemoglobins in cell lysates of treated ErPCs (two-phase liquid culture). The assay is classed as cell-based, human. The settings on record: for HbF induction: patient Th1 ErPCs (Table II); for HbF level in treated cells (table title): 100 nM as printed in title; for HbF induction compared with HU: patient Th10 ErPCs (Table III). The procedure: Patients were recruited following all the ethical requirements and the approval of the Ethical Committees of Ferrara Hospital. Blood samples were collected from 23 β-thalassemia patients after signature of the informed consent form.
The effects of isoxazole derivatives on cell growth and differentiation of erythroid precursors cells were determined by employing the two-phase liquid culture system and treated for five days with different concentration of the selected compound.
HPLC analyses were done on cell lysates derived from ErPCs of 23 patients and, through careful comparative analyses, we have monitored and quantified HbF, adult hemoglobins (HbA0 and HbA2) and the presence of α-aggregates. Generally, excess of α-globin chains is present in thalassemic patients that are deficient in β-globins, causing α-aggregates formation and precipitation. The α-aggregates reduction represents an important clinical result usually detectable in the presence of efficient HbF inducers.

Regarding `NC(=O)NO` [HU, hydroxyurea, reference compound], the “HbF induction” value is “active in inducing HbF”. Besides, the “HbF level in treated cells (table title)” value (patient Th1 ErPCs, untreated 15.47%) is reported as 24.51%. Also, the “aggregates α %” value (patient Th1 ErPCs, 100 μM, untreated C− 6.70) stood at 2.80%. Also, under “patient Th1 ErPCs, 100 μM, untreated C− 15.47”, the HbF % is 24.51%. The molecule further came in with a HbA2 % (patient Th1 ErPCs, 100 μM, untreated C− 31.29) of 33.19%. The molecule also registered a HbA0 % (patient Th1 ErPCs, 100 μM, untreated C− 46.54) of 37.61%. For the same molecule, the “HbF level in treated cells (table title)” value (patient Th10 ErPCs, untreated 17.57%) was 19.42%. In addition, for the setting “patient Th10 ErPCs, 100 μm, untreated C− 11.15”, the “aggregates α %” value stood at 11.55%. In addition, the HbF % (patient Th10 ErPCs, 100 μm, untreated C− 17.57) is recorded as 19.42%. Further, the HbA2 % (patient Th10 ErPCs, 100 μm, untreated C− 32.02) is on record as 34.82%. Also, under “patient Th10 ErPCs, 100 μm, untreated C− 39.26”, the HbA0 % turned out to be 34.22%.
Take `CCNC(=O)c1noc(-c2cc(C(C)C)c(O)cc2O)c1NC(=O)c1ccc(OC)cc1` [Compound 1]: the “HbF induction” value is “active in inducing HbF” and the “HbF induction compared with HU” value was “more active than HU in inducing HbF”. Further, the “aggregates α %” value (patient Th1 ErPCs, 85 nM, untreated C− 6.70) turned out to be 5.90%. Also, for the setting “patient Th1 ErPCs, 85 nM, untreated C− 15.47”, the HbF % is recorded as 30.30%. For the setting “patient Th1 ErPCs, 85 nM, untreated C− 31.29”, this molecule showed a HbA2 % of 21.39%. For the same molecule, the HbA0 % (patient Th1 ErPCs, 85 nM, untreated C− 46.54) was determined as 42.41%. Further, the “aggregates α %” value (patient Th10 ErPCs, 85 nM, untreated C− 11.15) is given as 2.26%. Also, the HbF % (patient Th10 ErPCs, 85 nM, untreated C− 17.57) amounted to 35.54%. This molecule also showed a HbA2 % (patient Th10 ErPCs, 85 nM, untreated C− 32.02) of 25.81%. For the setting “patient Th10 ErPCs, 85 nM, untreated C− 39.26”, this molecule returned a HbA0 % of 36.39%.
As for `CCNC(=O)c1noc(-c2cc(C(C)C)c(O)cc2O)c1NC(=O)CCN1CCOCC1` [Compound 2], the “HbF induction” value was “active in inducing HbF” and the “HbF induction compared with HU” value is “more active than HU in inducing HbF”. Where the note is “patient Th1 ErPCs, 50 nM, untreated C− 6.70”, the “aggregates α %” value is given as 2.81%. The same molecule came in with a HbF % (patient Th1 ErPCs, 50 nM, untreated C− 15.47) of 21.67%. For the setting “patient Th1 ErPCs, 50 nM, untreated C− 31.29”, this molecule came in with a HbA2 % of 24.82%. In addition, for the setting “patient Th1 ErPCs, 50 nM, untreated C− 46.54”, the HbA0 % was 50.70%. For the same molecule, the “aggregates α %” value (patient Th10 ErPCs, 50 nM, untreated C− 11.15) is 2.02%. The molecule also displayed a HbF % (patient Th10 ErPCs, 50 nM, untreated C− 17.57) of 36.36%. For the same molecule, the HbA2 % (patient Th10 ErPCs, 50 nM, untreated C− 32.02) came out at 25.29%. In addition, where the note is “patient Th10 ErPCs, 50 nM, untreated C− 39.26”, the HbA0 % is given as 36.34%.
